Our source for the IC50 values is US20260137698A1, “CYCLIN-DEPENDENT KINASE 7 INHIBITORS” (JOINT STOCK COMPANY «BIOCAD», priority 2022, published 2026).

Each structure is given as a SMILES string.

This experiment relates to MDA-MB-468 (triple negative breast cancer). Kind of experiment: BrdU incorporation into DNA in MDA-MB-468 cells. In kind it is cell-based. Conditions: Homo sapiens, mean of multiple measurements. An excerpt:
Upon adding bromodeoxyuridine (BrdU) to dividing cells, Thymidine is replaced by its analogue, BrdU, and BrdU is incorporated into DNA. Thus, BrdU incorporated into DNA characterizes the intensity of DNA replication and ongoing S phase of the cell cycle. Reduced incorporation of bromodeoxyuridine into DNA under the action of the compounds characterizes a slowdown in the cell cycle and DNA replication.
The ability of the CDK7 inhibitors according to the present invention to inhibit the incorporation of BrdU into DNA was evaluated in a cell test on continuous cell cultures: MDA-MB-468 (triple negative breast cancer, ATCC® HTB-132™) using a BrdU detection kit (Roche, order no. 11 669 915 001)). The cells were grown in DMEM medium (PanEco, order no. C330π). The basal growth medium was enriched with L-glutamine at a concentration of 2 mM (PanEco, order no. Φ032) and 10% fetal bovine serum (Gibco, order no. 16140-071). MDA-MB-468 adherent cells were detached from plastic with a solution of trypsin-EDTA (PanEco, order no. Π039π), the solution was then inactivated by a DMEM complete medium, centrifuged at 1000 RPM (Eppendorf, 5804 R), a suspension of cells was prepared in a DMEM complete medium, introduced into 96-well culture plates (Corning Inc, order no. 3599) at 4×10^3 cells in 75 μl of medium per well. Test compounds were dissolved in DMSO and diluted with a DMEM complete medium to a final concentration ranging from 0.5 μM to 2 μM. Serum-free growth medium was removed from plate wells, and solutions comprising diluted compounds in the volume of 100 μl in basal growth medium were added. Candidates were introduced into the plate wells with cells in triplicates (the final concentration of DMSO was no more than 1%) and incubated at 37° C. in an incubator with 5% CO2 for 24 hours. Following incubation, 10 μl of solution of BrdU at a concentration of 10 μM was added to wells, the contents of the plates were agitated on an orbital shaker (Biosan, Latvia), and incubated for additional 72 hours at 37° C. in an incubator with 5% CO2. Incorporated BrdU was then detected according to the guidelines of the kit manufacturer. […] 100 μl of substrate solution was introduced into each analyzed well and incubated for 3 minutes at room temperature (+15-25° C.) on an orbital shaker (Biosan, Latvia) and for another 5-7 minutes without stirring.
The amount of incorporated BrdU was detected on the Infinite M200Pro microplate spectrophotometer (Tecan Group Ltd, Switzerland) by measuring the luminescent signal. IC50 value was calculated using the Magellan software (Tecan Group Ltd, Switzerland) by approximating experimental points by four-parameter model with the optimization by Levenberg-Marquardt.
On the technique in general: Dividing cells build labelled thymidine or BrdU into new DNA.
In turn, `CN1CCCc2c(-c3nc(N[C@H]4CCC(C)(C)NC4)ncc3C(F)(F)F)c[nH]c2C1=O` [CDK7_1187, 3-(2-{[(3S)-6,6-dimethylpiperidin-3-yl]amino}-5-(trifluoromethyl)py-rimidin-4-yl)-7-methyl-1H,4H,5H,6H,7H, 8H-pyrrolo[2,3-c]azepin-8-one] came in with a 50% inhibitory concentration (IC50) of 14 nM. This counts as double-digit nanomolar. `O=C1c2[nH]cc(-c3nc(N[C@H]4CCC5(CC5)NC4)ncc3C(F)(F)F)c2CCCN1C1CC1` [CDK7_1276, 3-(2-{[(6S)-4-azaspiro[2.5]octan-6-yl]amino}-5-(trifluoromethyl)py-rimidin-4-yl)-7-cyclopropyl-1H,4H,5H,6H,7H, 8H-pyrrolo[2,3-c]azepin-8-one] returned an IC50 of 2 nM.

On to `CC(C)N1CCCc2c(-c3nc(N[C@H]4CCC(C)(C)NC4)ncc3C(F)(F)F)c[nH]c2C1=O` [CDK7_1229, 3-(2-{[(3S)-6,6-dimethylpiperidin-3-yl]amino}-5-(trifluoromethyl)py-rimidin-4-yl)-7-(propan-2-yl)-1H,4H,5H,6H,7H, 8H-pyrrolo[2,3-c]azepin-8-one], for which the IC50 came out at 28 nM. `CC1(C)CC[C@H](Nc2ncc(C(F)(F)F)c(-c3c[nH]c4c3CCCN(C3CC3)C4=O)n2)CN1` [CDK7_1225, 7-cyclopropyl-3-(2-{[(3S)-6,6-dimethylpiperidin-3-yl]amino}-5-(trifluoromethyl)py-rimidin-4-yl)-1H,4H,5H,6H,7H, 8H-pyrrolo[2,3-c]azepin-8-one] came in with an IC50 of 24 nM.

For orientation: IC50 means the midpoint of a concentration-inhibition curve.
